Source: patent US6872850B2, “Small molecule inhibitors of secretion of proteins encoded by ARE-mRNAs” (Message Pharmaceuticals, priority 2001, dated 2005)

Assays:
3′ UTR of the TNFα gene = assay: cell-based luciferase reporter assay, 5B cell line (luciferase gene with entire 3′ UTR of the TNFα gene); set-up: species or system mouse; details: for Luciferase 5B (% of DMSO control): 1 h, then LPS, 5B cell line
Method: The candidate compounds were tested in a high-throughput, cell-based luciferase reporter assay. For this assay, a commercially available mouse macrophage Raw 264.7 cell line was stably transfected with a construct containing the CMV promoter operably linked to the luciferase gene which was modified using standard molecular biology techniques to contain the entire 3′ UTR of the TNFα gene. This 3′ UTR is important for the stability and translation of TNFα in cells. To control for effects of candidate compounds that are not specific for TNFα, a control cell line, called “3B,” was generated by stably transfecting the 264.7 cell line with a commercially available construct containing the luciferase gene (without the addition of the heterologous 3′ UTR of the TNFα gene) under the regulation of the CMV promoter.
[…] Then, lipopolysaccharide (LPS) was added to stimulate TNFα secretion. Luciferase activity was measured by determining the luminescence intensity due to the reaction of lucifern, ATP, Mg^2+, and molecular O2 (see, for example, Ausubel et al., supra). The luciferase activity in a cell incubated with a candidate compound was reported as a percentage of the luciferase activity for the corresponding cell incubated with DMSO vehicle only.
After correction for any effect caused by the administration of the DMSO only vehicle control, the effect of a candidate compound on luciferase activity in the 3B control cell line represents the global effect of the compound on any step required for expression or activity of luciferase protein, such as luciferase gene transcription, mRNA processing, mRNA stability, translation, protein stability, or enzymatic activity. […] In this case, the luciferase activity in the 5B cell line treated with the DMSO vehicle control is similar to the luciferase activity in the control 3B cell line treated with the candidate compound. Thus, the response of the 5B cell line (as a percent of the DMSO control) and the ratio of the luciferase activity in the 5B cell line (as a percent of the DMSO control) to the luciferase activity in the control 3B cell line (as a percent of the DMSO control) are similar. In desirable embodiments, the response of the 5B cell line and the 5B/3B ratio differ by less than 50, 40, 30, 20, 10, or 5%.

TNFα = assay: ELISA of TNFα secreted into the media after LPS; type: cell-based; details: for effect on amount of secreted TNFα (direct TNFα secretion assay), in words: after LPS stimulation
Method: The ability of candidate compounds to reduce the amount of secreted TNFα was also directly tested using an ELISA assay. […] A standard ELISA analysis was used to measure the amount of TNFα secreted into the media (see, for example, Ausubel et al., supra). The effect of a candidate compound on TNFα secretion in this assay is reported in the following tables as a percentage of the amount of TNFα secreted by a control cell that was administered a DMSO vehicle control only.

[1] = 10 μM compound, ratio of 5B to control 3B cell line

Compound | Luciferase 5B (% of DMSO control) (3′ UTR of the TNFα gene; 10 μM compound) | Luciferase 5B/3B (% of DMSO control 5B)/(% of DMSO control 3B) (3′ UTR of the TNFα gene; [1]) | TNFα Secretion (% of DMSO control) (TNFα; 10 μM compound, 1 h, then LPS) | other results
C/C(=N\N=C(N)N)c1cccc(C(=O)NCCNC(=O)[C@H](Cc2ccccc2)NC(=O)c2ccc(/C(=N/N=C(N)N)c3ccccc3)cc2)c1.O=C(O)C(F)(F)F.O=C(O)C(F)(F)F [MES 10091, (E,E)-Bisguanylhydrazone of 1-[(S)-N-(4-benzoylbenzoyl)-2-amino-3-phenylpropanoyl]-4-(3-acetylbenzoyl)-1,4-diazabutane bis trifluoroacetate] |  |  |  | Luciferase 5B/3B (% of DMSO control 5B)/(% of DMSO control 3B) (3′ UTR of the TNFα gene; 1 μM compound (Table 11)): 113 (% of DMSO control 5B)/(% of D; Luciferase 5B/3B (% of DMSO control 5B)/(% of DMSO control 3B) (3′ UTR of the TNFα gene; 3 μM compound (Table 11)): 68 (% of DMSO control 5B)/(% of D; Luciferase 5B/3B (% of DMSO control 5B)/(% of DMSO control 3B) (3′ UTR of the TNFα gene; 10 μM compound (Table 11)): 73 (% of DMSO control 5B)/(% of D; TNFα Secretion (% of DMSO control) (TNFα; 1 μM compound (Table 11)): 97 % of DM80 control; TNFα Secretion (% of DMSO control) (TNFα; 3 μM compound (Table 11)): 41 % of DM80 control; TNFα Secretion (% of DMSO control) (TNFα; 10 μM compound (Table 11)): 22 % of DM80 control
CC(=NN=C(N)N)c1cccc(C(=O)NC(CC(C)C)C(=O)NCCCNC(=O)C(Cc2ccccc2)NC(=O)c2ccc(C(=NN=C(N)N)c3ccccc3)cc2)c1 (mixture of isomers) [MES 11562] | 44 % of DMSO control | 38 (% of DMSO control 5B)/(% of D | 50 % of DMSO control | effect on luciferase activity in the 5B cell line (luciferase assay), in words (3′ UTR of the TNFα gene): decrease TNFα secretion; effect on amount of secreted TNFα (direct TNFα secretion assay), in words (TNFα): decreased the amount of secreted TNFα
CC(C)CC(NC(=O)c1ccc(C(=NNC(=N)N)c2ccccc2)cc1)C(=O)N1CCN(C(=O)C(Cc2ccc(-c3ccccc3)cc2)NC(=O)c2ccc(C(=NNC(=N)N)c3ccccc3)cc2)CC1 (mixture of isomers) [MES 10193] | 23 % of DMSO control | 38 (% of DMSO control 5B)/(% of DMSO control 3B) | 20 % of DMSO control | 
CC(C)CC(NC(=O)c1ccc(C(=NNC(=N)N)c2ccccc2)cc1)C(=O)N1CCN(C(=O)C(Cc2ccccc2)NC(=O)c2ccccc2)CC1 (stereo not shown) [MES 10247] | 37 % of DMSO control | 41 (% of DMSO control 5B)/(% of D | 39 % of DMSO control | 
(1-Z,4-E)-Bisguanylhydrazone of 1-[(S)-N-(4-benzoylbenzoyl)-2-amino-3-phenylpropanoyl]-4-[(2S)-N-(3-acetylbenzoyl)-2-amino-4-methylpentanoyl]-piperazine bis trifluoroacetate [MES 10172] | 38 % of DMSO control | 49 (% of DMSO control 5B)/(% of DMSO control 3B) | 60 % of DMSO control | 
C/C(=N\NC(=N)N)c1cccc(C(=O)N[C@@H](CC(C)C)C(=O)N2CCN(C(=O)[C@H](Cc3ccccc3)NCc3ccc(I)cc3)CC2)c1 [MES 10242] | 53 % of DMSO control | 50 (% of DMSO control 5B)/(% of D | 67 % of DMSO control | 
CC(C)C[C@H](NC(=O)c1ccc(C(=NNC(=N)N)c2ccccc2)cc1)C(=O)N1CCN(C(=O)[C@H](Cc2ccccc2)NC(=O)c2ccc(C(=O)c3ccccc3)cc2)CC1.O=C(O)C(F)(F)F [MES 10168, (4-E)-Guanylhydrazone of 1-[(S)-N-(4-benzoylbenzoyl)-2-amino-3-phenylpropanoyl]-4-[(2S)-N-(4-benzoylbenzoyl)-2-amino-4-methylpentanoyl]-1,4-piperazine trifluoroacetate] | 104 % of DMSO control | 127 (% of DMSO control 5B)/(% of DMSO control 3B) | 35 % of DMSO control | 
CC(C)CC(NC(=O)c1ccc(C(=NNC(=N)N)c2ccccc2)cc1)C(=O)N1CCN(C(=O)C(Cc2cccc3ccccc23)NC(=O)c2ccc(C(=NNC(=N)N)c3ccccc3)cc2)CC1 (mixture of isomers) [MES 10191] | 46 % of DMSO control | 86 (% of DMSO control 5B)/(% of DMSO control 3B) | 22 % of DMSO control | 
CC(C)CC(NC(=O)c1ccc(C(=NNC(=N)N)c2ccccc2)cc1)C(=O)N1CCN(C(=O)C(CCc2ccccc2)NC(=O)c2ccc(C(=NNC(=N)N)c3ccccc3)cc2)CC1 (mixture of isomers) [MES 10194] | 34 % of DMSO control | 49 (% of DMSO control 5B)/(% of DMSO control 3B) | 22 % of DMSO control | 
CC(=NNC(=N)N)c1ccc(C(=O)NC(Cc2ccccc2)C(=O)N2CCN(C(=O)C(CC(C)C)NC(=O)c3cccc(C(C)=NNC(=N)N)c3)CC2)cc1 (mixture of isomers) [MES 11452] | 13 % of DMSO control | 50 (% of DMSO control 5B)/(% of D | 88 % of DMSO control | effect on amount of secreted TNFα (direct TNFα secretion assay), in words (TNFα): decreased the amount of secreted TNFα
CC(C)CC(NC(=O)c1ccc(C(=NNC(=N)N)c2ccccc2)cc1)C(=O)N1CCN(C(=O)C(Cc2ccc3ccccc3c2)NC(=O)c2ccc(C(=NNC(=N)N)c3ccccc3)cc2)CC1 (mixture of isomers) [MES 10195] | 36 % of DMSO control | 82 (% of DMSO control 5B)/(% of DMSO control 3B) | 33 % of DMSO control | 
CC(=NN=C(N)N)c1cccc(C(=O)NC(Cc2ccccc2)C(=O)N2CCN(C(=O)C(CC(C)C)NC(=O)c3ccc(C(=NN=C(N)N)c4ccccc4)cc3)CC2)c1 (mixture of isomers) [MES 11405] | 39 % of DMSO control | 49 (% of DMSO control 5B)/(% of D | 55 % of DMSO control | effect on luciferase activity in the 5B cell line (luciferase assay), in words (3′ UTR of the TNFα gene): decrease TNFα secretion; effect on amount of secreted TNFα (direct TNFα secretion assay), in words (TNFα): decreased the amount of secreted TNFα
O=C(N[C@@H](Cc1ccccc1)C(=O)N1CCN(C(=O)CCC(=O)N2CCN(c3ccccc3)CC2)CC1)c1ccc(C(=O)c2ccccc2)cc1 [MES 10229] | 31 % of DMSO control | 49 (% of DMSO control 5B)/(% of D | 65 % of DMSO control | 
C/C(=N\N=C(N)N)c1cccc(C(=O)NCCNC(=O)[C@H](Cc2ccccc2)NC(=O)c2ccc(/C(=N\N=C(N)N)c3ccccc3)cc2)c1.O=C(O)C(F)(F)F.O=C(O)C(F)(F)F [MES 10092, (1-Z,4-E)-Bisguanylhydrazone of 1-[(S)-N-(4-benzoylbenzoyl)-2-amino-3-phenylpropanoyl]-4-(3-acetylbenzoyl)-1,4-diazabutane bis trifluoroacetate] |  |  |  | Luciferase 5B/3B (% of DMSO control 5B)/(% of DMSO control 3B) (3′ UTR of the TNFα gene; 1 μM compound (Table 11)): 100 (% of DMSO control 5B)/(% of D; Luciferase 5B/3B (% of DMSO control 5B)/(% of DMSO control 3B) (3′ UTR of the TNFα gene; 3 μM compound (Table 11)): 78 (% of DMSO control 5B)/(% of D; Luciferase 5B/3B (% of DMSO control 5B)/(% of DMSO control 3B) (3′ UTR of the TNFα gene; 10 μM compound (Table 11)): 69 (% of DMSO control 5B)/(% of D; TNFα Secretion (% of DMSO control) (TNFα; 1 μM compound (Table 11)): 108 % of DM80 control; TNFα Secretion (% of DMSO control) (TNFα; 3 μM compound (Table 11)): 81 % of DM80 control; TNFα Secretion (% of DMSO control) (TNFα; 10 μM compound (Table 11)): 107 % of DM80 control
(E,E)-Bisguanylhydrazone of 1-[(S)-N-(4-benzoylbenzoyl)-2-amino-3-phenylpropanoyl]-4-[(2S)-N-(4-benzoylbenzoyl)-2-amino-4-methylpentanoyl]-1,4-piperazine bis trifluoroacetate [MES 10164] | 29 % of DMSO control | 31 (% of DMSO control 5B)/(% of DMSO control 3B) | 45 % of DMSO control | effect on luciferase activity in the 5B cell line (luciferase assay), in words (3′ UTR of the TNFα gene): inhibited TNFα secretion; effect on amount of secreted TNFα (direct TNFα secretion assay), in words (TNFα): inhibited TNFα secretion
CC(C)CC(NC(=O)c1ccc(C(=NNC(=N)N)c2ccccc2)cc1)C(=O)N1CCN(C(=O)C(Cc2ccccc2)NC(=O)c2ccc([N+](=O)[O-])cc2)CC1 (mixture of isomers) [MES 10233] | 36 % of DMSO control | 40 (% of DMSO control 5B)/(% of D | 42 % of DMSO control | 
